Results as given in US4663326A, “Pyrazolo[4,3-d]pyrimidine-5,7-(4H,6H)dione or -5-thione-7-one analogs” (Warner-Lambert Company, priority 1985, dated 1987).

What was measured:
[1] = target: T1, adenosine receptors (designated A1) (Rattus norvegicus, UniProt P25099); experiment: Adenosine receptor binding - A1 receptor affinity (RBA1), [3H]-CHA displacement, rat whole brain minus cerebellum and brainstem membranes; design: species or system rat (male Long Evans); conditions: 1.0 nM [3H]-CHA, 25° C., pH 7.7; repeat tests (Test 1-4) one line each; read-out: RBA-1 (IC50, adenosine A1 affinity)
T1 construct: Whole brain minus cerebellum and brainstem from male Long Evans rats (150-200 g); from tissue; host or cells: whole brain minus cerebellum and brainstem, male Long Evans rats, membranes
T1 sequence (P25099 1-326): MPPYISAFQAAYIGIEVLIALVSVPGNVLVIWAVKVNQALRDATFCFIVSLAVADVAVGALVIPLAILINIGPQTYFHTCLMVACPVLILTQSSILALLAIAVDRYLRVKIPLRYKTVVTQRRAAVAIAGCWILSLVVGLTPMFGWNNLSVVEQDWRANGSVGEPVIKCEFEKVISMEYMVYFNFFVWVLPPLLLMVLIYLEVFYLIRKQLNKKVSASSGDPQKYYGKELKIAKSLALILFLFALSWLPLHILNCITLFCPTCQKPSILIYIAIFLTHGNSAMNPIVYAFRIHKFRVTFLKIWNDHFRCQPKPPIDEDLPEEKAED
Method: ADENOSINE RECEPTOR BINDING-A1 RECEPTOR AFFINITY (RBA1)
Whole brain minus cerebellum and brainstem from male Long Evans rats (150-200 g) was homogenized in 30 volumes of ice-cold 0.05M Tris-HCl buffer pH 7.7 using a Brinkman Polytron PT-10, (setting number 6 for 20 seconds) and centrifuged for ten minutes at 20,000×g (Sorvall RC-2), 4° C. The supernatant was discarded, and the pellet was resuspended and centrifuged as before. The pellet was resuspended in 20 ml Tris-HCl buffer containing two International Units/ml of adenosine deaminase (Sigma type III from calf intestinal mucosa), incubated at 37° C. for 30 minutes, then subsequently at 0° C. for ten minutes. The homogenate was again centrifuged, and the final pellet was resuspended in ice-cold 0.05M Tris-HCl buffer pH 7.7 to a concentration of 20 mg/ml original wet tissue weight and used immediately.
Tissue homogenate (10 mg/ml) was incubated in 0.05M Tris-HCl buffer pH 7.7 containing 1.0 nM [^3 H]-N^6 -cyclohexyladenosine (^3 H]-CHA) with or without test agents in triplicate for one hour at 25° C. Incubation volume was 2 ml. Unbound [^3 H]-CHA was separated by rapid filtration under reduced pressure through Whatman glass fiber (GF/B) filters. The filters were rinsed three times with 5 ml of ice cold 0.05M Tris-HCl buffer pH 7.7. The radio-labeled ligand retained on the filter was measured by liquid scintillation spectrophotometry after shaking the filters for one hour or longer on a mechanical shaker in 10 ml of Beckman Ready-Solv HP scintillation cocktail.
Nonspecific binding was defined as the binding which occurred in the presence of 1 mM theophylline. The concentration of test agent which inhibited 50% of the specific binding (IC50) was determined by nonlinear computer curve fit. The Scatchard plot was calculated by linear regression of the line obtained by plotting the amount of radioligand bound ([…]) versus [bound radioligand/free radioligand].Since the amount of radioligand bound was a small fraction of the total amount added, free radioligand was defined as the concentration (nM) of radioligand added to the incubation mixture. The Hill coefficient was calculated by linear regression of the line obtained by plotting the log of the bound radioligand vs the log of the [bound radioligand/(Bmax -bound radioligand)]. The maximal number of binding sites (Bmax) was calculated from the Scatchard plot.

histamine = experiment: Bronchodilator test (BCA), histamine spasmogen, guinea pigs; assay type: in vivo, Hartley Guinea Pigs; design: key: Active; conditions: 50 mg/kg
Description: The compounds of this invention may be determined to have antiallergy activity by a standard laboratory means employing the bronchodilator test (BCA) readily accepted as a standard for antiallergy activity, which is described in Siegmund, H. O., et al (J. Pharmacol. and Exptl., 90:254, 1949 and Herxheimer, H., J. Physiol., 117: 252-255, 1952). Thus, antiallergy activity was found for compounds of this invention by this BCA test using Hartley Guinea Pigs by the procedures as described below.
Naive (BCA) pigs are exposed to spasmogen for ten minutes by means of a De Vilbiss number 40 nebulizer positioned at the back of a closed, six unit plexiglas chamger (19×12.5×9"). Air flow is adjusted to give a pressure of 10 lbs/in; six animals per treatment are averaged, and the mean value for compound treated animals is compared to that for animals treated with vehicle. […]
The spasmogen may be acetylcholine chloride (0.3%), histamine (0.1%), methacholine chloride (Mecholyl) (0.1%) or serotonin creatinine sulfate. Each nebulizer dispenses 0.2 cc/minute.

Row | Compound | IC50 [1] [µM] | BCA Results, Ratings (histamine)
1 | Cc1nn(C)c2c(=O)[nH]c(=O)[nH]c12 [Example 1, 1,3-Dimethylpyrazolo[4,3-d]pyrimidine-5,7-(4H, 6H)dione] | 11 | A
2 | CCn1nc(C)c2[nH]c(=S)[nH]c(=O)c21 [Example 2, 1-Ethyl-1,4,5,6-tetrahydro-3-methyl-pyrazolo[4,3-d]pyrimidine-5-thione-7-on] | 19.3 | –
